Measurements from PubChem BioAssay AID2060343 (Molecular Pharmacology Branch, DTP, NCI, 2025).

System: 138582-337-R-J1-PDC spheroids with HUVEC/MSC, viability
Test: Anticancer human tumor 138582-337-R-J1-PDC patient-derived Merkel cell tumor cell line growth inhibition [IpAb]
Settings: for IC50: curve of first compound; for viability, T/C: stronger effect = lower value
From the text: Combinatorial screen of targeted agents with ipatasertib and abemaciclib in multi-cell type tumor spheroids
A high-throughput screen of multi-cell type tumor spheroids was designed to identify active combinations of targeted small molecules and ipatasertib or abemaciclib. Complex spheroids include a stromal component modeled by human endothelial cells (HUVEC) and fibroblasts modeled by human mesenchymal stem cells (MSCs). The concentration ranges selected for each drug and investigational agent were based upon clinically achievable concentrations if the clinical Cmax of the agent was known.
Compounds. The drugs and investigational agents: ipatasertib (NSC767898), abemaciclib(NSC768073), selumetinib (NSC741078), trametinib (758246), adavosertib (NSC754352), everolimus (NSC733504), sapanisertib (NSC764658), vemurafenib (NSC761431), venetoclax (NSC766270), copanlisib (NSC809693), apelisib (NSC765974), palbociblib (NSC758247), vemurafenib (NSC761431), dabrafenib (NSC764134), ravoxertinib (NSC781343), BMS-387032 (NSC767048), sotorasib (NSC818433), talazoparib (NSC767125) and afursertib (NSC778305), were obtained from the National Cancer Institute (NCI) Developmental Therapeutics Program Chemical Repository. The FDA-approved anticancer drug set is available from the NCI Developmental Therapeutics Program. […] The stock solutions were prepared in dimethyl sulfoxide (DMSO, Sigma-Aldrich, St. Louis, MO, cat. D2650) at 800-fold the tested concentration and stored at -70 degrees C prior to their use. All drugs and investigational agents were tested over a range starting from a high concentration at or near the clinical Cmax and decreasing in half-log increments. If the clinical Cmax for an agent had not been determined, the highest concentration tested was 10 microM.
NCI60 Cell Culture. NCI60 cell lines were obtained from the NCI Developmental Therapeutics Program Tumor Repository. For each lot of cells, the Repository performed Applied Biosystems AmpFLSTR Identifiler testing with PCR amplification to confirm consistency with the published Identifier STR profile for each cell line. Cells were kept in continuous culture for no more than 20 passages. The optimal seeding densities for each of the cell lines at each time point assessed were determined prior to performing the concentration response studies. Briefly, the NCI60 human tumor lines were grown as monolayers in RPMI 1640 medium supplemented with 10% FBS and 2 mmol/L L-glutamine.
An additional 9 lines were from the NCI60 cell line panel including MDA-MB-231 breast carcinoma, MDA-MB-468 breast carcinoma, MCF7 breast carcinoma, Hs578T breast carcinoma, MALME-3M melanoma, SK-MEL-2 melanoma, SK-OV-3 ovarian carcinoma, DU-145 prostate carcinoma, PC-3 prostate carcinoma, all cell lines along with major genetic alterations are listed on Table 2. Pooled donor human umbilical vein endothelial cells (HUVEC, Lonza, cat. CC-2519) and human mesenchymal stem cells (hMSC, Lonza, cat. PT-2501) were purchased from Lonza (Walkersville, MD).
PDMR cell lines were grown in complete medium (DC medium): Dulbecco's modified Eagle's medium (DMEM)/F12 supplemented with 5% fetal bovine serum (FBS), 2 mM L-glutamine, 100 U/mL penicillin and 100 µg/ml streptomycin, 0.4 µg/ml hydrocortisone, 10 ng/ml epidermal growth factor (EGF) recombinant human protein, 24 µg/mL adenine, and 0.1 mg/mL primocin. During culture from frozen stock vials, PDMR cells were cultured in the same medium containing 10 µM Y-27632 (see Table 3). The PDCs were cultured in complete DMEM/F12 media without 10 microM Y-27632 dihydrochloride for at least two passages prior to the screen. The pooled donor HUVEC and hMSC were cultured in endothelial cell growth medium 2 (PromoCell, Heidelberg, Germany, cat. C-22011) and mesenchymal stem cell growth medium 2 (PromoCell, cat. C-28009), respectively. For all experiments, HUVEC and hMSC were used at passages </=5.
[…]

[1] = second compound 0.1 µM, first compound 0.0316 µM
[2] = second compound 0.1 µM, first compound 0.1 µM
[3] = second compound 0.1 µM, first compound 0.316 µM
[4] = second compound 0.1 µM, first compound 1 µM
[5] = second compound 0.316 µM, first compound 0.0316 µM
[6] = second compound 0.316 µM, first compound 0.1 µM
[7] = second compound 0.316 µM, first compound 0.316 µM
[8] = second compound 0.316 µM, first compound 1 µM
[9] = second compound 1 µM, first compound 0.0316 µM
[10] = second compound 1 µM, first compound 0.1 µM
[11] = second compound 1 µM, first compound 0.316 µM
[12] = second compound 1 µM, first compound 1 µM
[13] = second compound 3.16 µM, first compound 0.0316 µM
[14] = second compound 3.16 µM, first compound 0.1 µM
[15] = second compound 3.16 µM, first compound 0.316 µM
[16] = second compound 3.16 µM, first compound 1 µM
[17] = second compound 10 µM, first compound 0.0316 µM
[18] = second compound 10 µM, first compound 0.1 µM
[19] = second compound 10 µM, first compound 0.316 µM
[20] = second compound 10 µM, first compound 1 µM
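Note: spheroids exposed to compounds for seven days.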
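Throughout, for viability, T/C: 100% = DMSO vehicle control viability.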

Compound | IC50 (second compound 0.1 µM) [nM] | IC50 (second compound 0.316 µM) [nM] | IC50 (second compound 1 µM) [nM] | IC50 (second compound 3.16 µM) [nM] | IC50 (second compound 10 µM) [nM] | viability, T/C [1] [%] | viability, T/C [2] [%] | viability, T/C [3] [%] | viability, T/C [4] [%] | viability, T/C [5] [%] | viability, T/C [6] [%] | viability, T/C [7] [%] | viability, T/C [8] [%] | viability, T/C [9] [%] | viability, T/C [10] [%] | viability, T/C [11] [%] | viability, T/C [12] [%] | viability, T/C [13] [%] | viability, T/C [14] [%] | viability, T/C [15] [%] | further results
COc1c(OCCCN2CCOCC2)ccc2c3n(c(=NC(=O)c4cnc(N)nc4)nc12)CCN3 + CC(C)NCC(C(=O)N1CCN(c2ncnc3c2C(C)CC3O)CC1)c1ccc(Cl)cc1 | 46.5 | 27.3 | 11.8 | < 3.16 | < 3.16 | 58.3 | 32.5 | 19.8 | 3.52 | 49.4 | 28.9 | 16.7 | 2.34 | 39.3 | 25.6 | 13.9 | 1.91 | 33.9 | 21.5 | 13.9 | viability, T/C (second compound 0.1 µM, first compound 0.00316 µM): 81.3%; viability, T/C (second compound 0.1 µM, first compound 0.01 µM): 74.2%; viability, T/C (second compound 0.316 µM, first compound 0.00316 µM): 74.7%; viability, T/C (second compound 0.316 µM, first compound 0.01 µM): 63%; viability, T/C (second compound 1 µM, first compound 0.00316 µM): 59.3%; viability, T/C (second compound 1 µM, first compound 0.01 µM): 53%; viability, T/C (second compound 3.16 µM, first compound 0.00316 µM): 46.8%; viability, T/C (second compound 3.16 µM, first compound 0.01 µM): 41.7%; viability, T/C [16]: 1.61%; viability, T/C (second compound 10 µM, first compound 0.00316 µM): 35.6%; viability, T/C (second compound 10 µM, first compound 0.01 µM): 31.9%; viability, T/C [17]: 24.8%; viability, T/C [18]: 16.3%; viability, T/C [19]: 6.62%; viability, T/C [20]: 1.13%
Cc1nc(NC(=O)N2CCCC2C(N)=O)sc1-c1ccnc(C(C)(C)C(F)(F)F)c1 (stereo not given) + CC(C)NCC(C(=O)N1CCN(c2ncnc3c2C(C)CC3O)CC1)c1ccc(Cl)cc1 | 1490 | 961 | 704 | < 31.6 | < 31.6 | 93.4 | 77.3 | 67.5 | 52.8 | 81.3 | 71.7 | 63.1 | 42.7 | 67.2 | 60.4 | 59.5 | 43.5 | 49.9 | 43.9 | 44.9 | viability, T/C (second compound 0.1 µM, first compound 3.16 µM): 47.6%; viability, T/C (second compound 0.1 µM, first compound 10 µM): 22.7%; viability, T/C (second compound 0.316 µM, first compound 3.16 µM): 45.7%; viability, T/C (second compound 0.316 µM, first compound 10 µM): 16.4%; viability, T/C (second compound 1 µM, first compound 3.16 µM): 36.4%; viability, T/C (second compound 1 µM, first compound 10 µM): 14.2%; viability, T/C [16]: 35.7%; viability, T/C (second compound 3.16 µM, first compound 3.16 µM): 27.1%; viability, T/C (second compound 3.16 µM, first compound 10 µM): 5.2%; viability, T/C [17]: 40.5%; viability, T/C [18]: 40%; viability, T/C [19]: 32.9%; viability, T/C [20]: 25.7%; viability, T/C (second compound 10 µM, first compound 3.16 µM): 15.2%; viability, T/C (second compound 10 µM, first compound 10 µM): 1.06%
